Literature values in patent publication US12018060B2 (HANMI PHARM CO., LTD., priority 2014, dated 2024).

Settings: after one year of administration

In the case of `CCCCCCCCCCC[C@@H](C[C@@H]1OC(=O)[C@H]1CCCCCC)OC(=O)[C@H](CC(C)C)NC=O` [Orlist®, Orlistat], the body weight decrease is listed as “about 4 kg”.
